Laboratory results from patent publication US20240287054A1, “COMPOUNDS THAT BIND NON-CANONICAL G-QUADRUPLEX STRUCTURES AND METHODS OF MAKING AND USING THE SAME” (The U.S.A., as Represented by the Secretary, Department of …, priority 2021, published 2024).
Blank lines part the entries; values can stand above or below the compound they belong to.

Key:
N-Myc protein = test: Western blot of N-Myc protein in NBEB cells; assay type: cell-based; details: 48 h, Western blotting
Protocol: To examine the effects of G4-binding compounds on NBEB cells, live-cell imaging was performed using an Incucyte interface (described below). NBEB (5K/well), cells were seeded into 96-well plates in triplicate, treated with compound MY-8 at various concentrations (0-45 μM), and cultured until control wells reached confluence. For RT-qPCR and western blotting, NBEB (300K) cells were treated with MY-8 in 6-well dish for 48 h. To examine the time-dependent decrease in MYCNOs expression, cells were treated with 22.5 μM and 45 μM MY-8 and analyzed at various times (0, 4, 24, 48, 72 and 96 h). To validate cell viability, a Trypan Blue exclusion test was performed following treatment at 48 h and 96 h post treatment and the proportion of live versus dead cells was calculated using a hemocytometer.
Protein assay. Forty-eight hours post-MY-8 treatment in 6-well plates, single copy MYCN cells were lysed directly in the plate with Radioimmunoprecipitation assay buffer (Beyotime, China), pelleted, and chilled at −80° C. […] Total protein concentrations were determined using a Bradford Assay using the Bradford reagent (Beyotime, China). […] Chemiluminescent signal was detected using Clarity™ Western ECL Substrate (Bio-Rad, USA) or Supersignal™ West Femto Maximum Sensitivity Substrate (ThermoFisher Scientific, USA) with a ChemiDoc gel imaging system (Bio-Rad, USA).

[1] = tested on: ~19,000 different G4 sequences, G4 and non-G4 controls; test: High-density DNA oligo microarray (~19,000 G4 sequences) selectivity profiling; assay type: binding; details: 500 nM compound
Source text: To further characterize the binding selectivity of compound B33, high-density and large-scale DNA microarrays that contained ˜19,000 different G4 sequences were fabricated and used. In this microarray, 340 reported G4s (G-rich sequences) as well as 280 non-G4s (C-rich sequences) were designed as positive and negative controls. Additionally, over 17,000 canonical G4 oligos with short loops (1˜7 nt) were also designed and synthesized by varying the loop sequences to meet the diversity of G4 structure. After folding the surface-grafted DNA oligos in high concentration of KCl buffer, TO and compound B33 solutions (500 nM) were incubated with the microarray, respectively. Then the slides were thoroughly washed, dried, and imaged by a fluorescent scanner using green channel. […] By quantifying the fluorescence intensity of each spot, the bindings of TO and compound B33 were further investigated. The kernel density estimate (KDE) plot and violin plot represented the distribution of the binding signals throughout the whole microarray. […] Compound B33 spectrum spanned a much wider range than that of TO. In the violin plot (FIG. 37C), the mean SNR value of TO group was 12, much higher than that of the compound B33 group. […] Furthermore, the selectivity of the two compounds were quantitatively profiled by using Gini coefficient. Gini coefficient, initially used as an economic concept, has been applied in profiling the selectivity/promiscuity of kinase inhibitors as well as RNA binders. A higher Gini value represents a better selectivity of a compound (Gini coefficient>0.75 is considered an excellent selectivity). The Gini coefficient based on the SNRs in the microarray.

BCL2 HP-G4 = test: FIA binding test with BCL2 HP-G4 (parallel structure)
Protocol: In this study, FIA was used for validating the bindings between certain bivalent and MYCN G4 oligos. To measure the binding affinity, a solution of each compound was prepared in triplicate in a 96 well-plate (Costar, black side clear bottom), resulting in a final concentration of 100 nM (5% final DMSO in the working solution). Unlabeled MYCN G4 DNA was folded based on the above-mentioned annealing method, then added into the well plate resulting in different concentrations by a seral dilution. The plate was incubated at room temperature for 30 min, followed by centrifuging at 500 rpm for 2 minutes. The fluorescence intensity was then quantitatively recorded by a Synergy Mx microplate reader (BioTek) at Ex 340 nm/Em 500 nm. The fluorescence intensities were then normalized, and the binding affinity was calculated by fitting the curve using one-site total model in GraphPad Prism 8.3.1 software.
In addition to the DMS-footprinting study, the bivalent binding mode of compound B33 toward MYCN hairpin-G4 was also investigated by comparing HP-G4s with different folding types. Four reported HP-G4s with parallel structure (BCL2), (3+1) hybrid structure (HIV and PIM1-form1), and (2+2) chair-type structure (PIM1-form2) were examined by FIA binding test using compound B33 (FIGS. 41A, 41B, 42A, 42B, 43A, 43B, 44A, and 44B). […]

MYCN G4 DNA = test: Microscale thermophoresis (MST) with 3′-Cy5 MYCN G4 DNA; parameters: species or system human; details: 3′-Cy5 labeled MYCN G4, 1:1 binding model; read-out: binding affinity by MST
Protocol: Microscale thermophoresis (MST). MST experiments were carried out on a Monolith NT.115 system (NanoTemper Technologies). The 3′-Cy5 MYCN G4 DNA solutions were prepared in 10 mM Tris (pH 7.5), 100 mM KCl, 0.005% T20, annealed (according to the above-mentioned method), and diluted to 100 nM (2×). The DMSO solutions of small molecules were prepared in the buffer with a series 1:1 dilution, resulting in 2× of designed concentrations (10% DMSO). Then, DNA samples were 1:1 (v/v) mixed with corresponding small molecule solutions, resulting in 50 nM DNA and 5% DMSO. Finally, MST signals were detected in triplicate capillaries, and the dissociation constant was determined by fitting the curve using a single-site model (MO.Affinity Analysis v2.3).

[2] = target: five 5′Cy5-labeled G4s from cancer-relevant genes (BCL2, KRAS, mTOR, NRAS, telomeric DNA); test: FIA selectivity profiling with five other 5′Cy5-labeled G4s; assay type: binding; details: five 5′Cy5-labeled G4s other than MYCN

SMILES: COc1ccc(-c2noc(-c3ccc(NCCCN4CCCCCC4)nn3)n2)cc1 [MY-8, N-(3-(azepan-1-yl)propyl)-6-(3-(4-methoxyphenyl)-1,2,4-oxadiazol-5-yl)pyridazin-3-amine]
levels of N-Myc protein (N-Myc protein): decreased upon treatment with MY-8 in a dose-dependent fashion

SMILES: COc1ccc(-c2noc(-c3ccc(NCCCNc4c5ccc(Cl)cc5nc5ccc(OC)cc45)nn3)n2)cc1 [B33, N^1-(6-chloro-2-methoxyacridin-9-yl)-N^3-(6-(3-(4-methoxyphenyl)-1,2,4-oxadiazol-5-yl)pyridazin-3-yl)propane-1,3-diamine]
binding to the 620 G4 and non-G4 controls ([1]; 340 G4s and 280 non-G4s): some binding to G4s while there was no binding observed in non-G4 group
Gini coefficient ([1]; based on SNRs in the microarray): 0.628
fold weaker than MYCN HP-G4 (BCL2 HP-G4; BCL2 HP-G4 vs MYCN HP-G4): ~4 times
Kd (BCL2 HP-G4; FIA): 0.258 ± 0.039 µM

Kd (MYCN G4 DNA): 8.1 ± 1.7 µM
binding affinities (KD) to other G4s [2]: no significant quenching behavior
SMILES: COc1ccc(-c2noc(-c3ccc(NCCCN4CCCC4)nn3)n2)cc1 [MY-1, 6-(3-(4-methoxyphenyl)-1,2,4-oxadiazol-5-yl)-N-(3-(pyrrolidin-1-yl)propyl)pyridazin-3-amine]
